Six compounds from patent US12358919B2, “Antibacterial compounds” (Universita' degli Studi di Siena, priority 2019, dated 2025) can be followed below.

Assay [1] relates to Staphylococcus aureus ATCC 25923. The experiment in a line: MIC, broth microdilution (direct antibacterial activity). In kind it is cell-based. Particulars: ATCC25923, S. aureus ATCC 25923, compound alone, 18-24 h, read-out: MIC. Here is the method: (§1) Growth inhibition or killing of bacteria was investigated using conventional methods widely described in the scientific literature. Parameters such as the Minimum Inhibitory Concentration (MIC) were determined as described in Clinical Laboratory Standard Institute (CLSI) document M07 “Methods for Dilution Antimicrobial Susceptibility Tests for Bacteria That Grow Aerobically, 11th Edition” (2018). Synergistic activity of the compounds described in the present specification were determined by measuring the variation of the MIC's compound in the absence and presence of a sub-inhibitory concentration of a suitable antibacterial agent, such as polymyxin E1. Furthermore, the Fractional Inhibitory Concentrations (FICs) were measured using a chequerboard analysis to determine the average FIC index (FICI), whose value is known to characterize the interaction between two compounds and/or drugs (≤0.5, synergistic interaction; >0.5 and <2, no interaction, additive effect; ≥2, antagonistic interaction). Furthermore, the selectivity of the compounds was investigated by measuring their cytotoxic effect on mammalian cell lines (e.g. HeLa cells).
(§2) The MIC values were determined using the broth microdilution method as described in document M07 using Mueller-Hinton broth as culture medium and an initial bacterial inoculum size of 5×10^5 CFU/mL, with a final volume of 100 μL per well in a 96-well microplate. Bacterial strains were Bacillus subtilis ATCC 6633, Enterococcus faecalis ATCC 29212, Streptococcus pyogenes ATCC 12344 and Staphylococcus aureus ATCC 25923. The tested compound concentration ranged from 512 to 0.25 mg/L. Plates were incubated for 18-24 hours at 35±2° C. prior to results analysis.
(In general: Dilution methods test growth across graded concentrations, often in twofold steps.)

Assay [2] has as its system Bacillus subtilis ATCC 6633. Described as above. In kind it is cell-based. The following applies: ATCC6633, B. subtilis ATCC 6633, compound alone, 18-24 h, read-out: MIC. The method, then: as §1, §2
In assay [3] the test system is Enterococcus faecalis ATCC 29212. The description is as above. In kind it is cell-based. The following applies: ATCC29212, E. faecalis ATCC 29212, compound alone, 18-24 h, read-out: MIC. Here is the method: as §1, §2
Assay [4] concerns Streptococcus pyogenes ATCC 12344. Described as above. It counts as cell-based. The following applies: ATCC12344, S. pyogenes ATCC 12344, compound alone, 18-24 h, read-out: MIC. Here is the method: as §1, §2
Assay [5] deals with Acinetobacter baumannii ATCC 17978. The assay can be described thus: microbe, parasite or virus in culture. Particulars: for Potentiation fold: ratio MICcompound/MICcompound+polymyxin E; for MIC in presence of colistin: with 0.25xMIC polymyxin E1 (0.25 mg/L); for MIC: Acinetobacter baumannii, ATCC17978. In kind it is cell-based. Here is the method:
as §1
(§3) Several methods were used to investigate the synergistic activity of the compounds, including (a) the determination of the MIC in the presence of a sub-inhibitory concentration of a suitable antibacterial agent, (b) the determination of the average FICI using a chequerboard analysis and (c) the time-kill curve analysis of a suitable agent (at a sub-inhibitory concentration) in the absence and presence of the pyrazolo[4,3-b]pyridin-6-carboxamide compound at a fixed concentration of 2 or 8 mg/L.
(§4) The MIC of the compound was determined alone and in the presence of a fixed and sub-inhibitory concentration of a suitable antibacterial agent of the polymyxin class, such as polymyxin E1 (colistin). The potentiation fold was computed as the ratio MICcompound/MICcompound+polymyxin E. Tested organisms included Escherichia coli CCUG^TKlebsiella pneumoniae ATCC 13833 and Acinetobacter baumannii ATCC 17978, which show a colistin MIC of 0.5, 0.5 and 1 mg/L, respectively.

Assay [6] concerns Klebsiella pneumoniae ATCC 13833. The experiment in a line: microbe, parasite or virus in culture. In kind it is cell-based. Particulars: for Potentiation fold: ratio MICcompound/MICcompound+polymyxin E; for MIC in presence of colistin: with 0.25xMIC polymyxin E1 (0.12 mg/L); for MIC: Klebsiella pneumoniae, ATCC13833. Here is the method: as §1, §3, §4
A further assay has as its system Escherichia coli CCUG^T. The assay can be described thus: microbe, parasite or virus in culture. It counts as cell-based. Particulars: for Potentiation fold: ratio MICcompound/MICcompound+polymyxin E; for MIC in presence of colistin: with 0.25xMIC polymyxin E1 (0.12 mg/L); for MIC: Escherichia coli. Here is the method:
as §1, §3, §4

For a further assay, the system named is K. pneumoniae ATCC 13833. The assay can be described thus: Chequerboard analysis with polymyxin E1 (average FIC index). In kind it is cell-based, Klebsiella pneumoniae. Particulars: compound + polymyxin E1.
The mark [7] stands for this setting: A. baumannii ATCC 17978, compound alone, read-out: MIC.
Where [8] appears, read: K. pneumoniae ATCC 13833, compound alone, read-out: MIC.
[9] abbreviates: E. coli CCUG^T, compound alone, read-out: MIC.

Where two headings read alike, the source gives them in different places.

As to `CCCCn1c(=O)c(C(=O)Nc2ccc(F)cc2)c(O)c2nn(C)cc21` [Iae, 4-(1-Butyl)-4,5-dihydro-N-(4-fluorophenyl)-7-hydroxy-2-methyl-5-oxo-2H-pyrazolo[4,3-b]pyridin-6-carboxamide], the MIC is 128 µg/mL in assay [1]; 128 µg/mL in assay [2]; 32 µg/mL in assay [3]; 32 µg/mL in assay [4]; greater than 512 µg/mL in assay [5] (setting [7]); greater than 512 µg/mL in assay [6] (setting [8]). In the assay with Escherichia coli CCUG^T (setting [9]), the MIC was greater than 512 µg/mL. Also, the figures for the Potentiation fold (in assay [5] (A. baumannii ATCC 17978); in assay [6] (K. pneumoniae ATCC 13833); in the assay with Escherichia coli CCUG^T (E. coli CCUG^T)) were no less than 16, no less than 2 and no less than 2, respectively. Further, the “MIC in presence of colistin” value turned out to be 32 µg/mL in assay [5] (A. baumannii ATCC 17978), 256 µg/mL in assay [6] (K. pneumoniae ATCC 13833) and 256 µg/mL with Escherichia coli CCUG^T (E. coli CCUG^T).

Consider `CCCCn1c(=O)c(C(=O)NC(C)(C)C)c(O)c2nn(C)cc21` [Iaf, 4-(1-Butyl)-4,5-dihydro-N-(1,1-dimethylethyl)-7-hydroxy-2-methyl-5-oxo-2H-pyrazolo[4,3-b]pyridin-6-carboxamide], for which the MIC was 64 µg/mL in assay [1]; 128 µg/mL in assay [2]; 512 µg/mL in assay [3]; 64 µg/mL in assay [4]; greater than 512 µg/mL in assay [5] (setting [7]); greater than 512 µg/mL in assay [6] (setting [8]). The MIC in the assay with Escherichia coli CCUG^T (setting [9]) was greater than 512 µg/mL. The Potentiation fold in assay [5] (A. baumannii ATCC 17978) is reported as no less than 8; in assay [6] (K. pneumoniae ATCC 13833) it was no less than 16; in the assay on Escherichia coli CCUG^T (E. coli CCUG^T) it was no less than 16. Also, the “MIC in presence of colistin” value was determined as 64 µg/mL in assay [5] (A. baumannii ATCC 17978), 32 µg/mL in assay [6] (K. pneumoniae ATCC 13833) and 32 µg/mL in the assay with Escherichia coli CCUG^T (E. coli CCUG^T).

Regarding `CCCCCn1c(=O)c(C(=O)NC23CC4CC(CC(C4)C2)C3)c(O)c2nn(CCO)cc21` [In, N-(Adamantan-1-yl)-4,5-dihydro-7-hydroxy-2-(2-hydroxyethyl)-5-oxo-4-(1-pentyl)-2H-pyrazolo[4,3-b]pyridin-6-carboxamide], the “Average FIC index” value with K. pneumoniae ATCC 13833 worked out at 0.32. In addition, the Potentiation fold in assay [5] (A. baumannii ATCC 17978) is recorded as no less than 16; in assay [6] (K. pneumoniae ATCC 13833), no less than 32; with Escherichia coli CCUG^T (E. coli CCUG^T), no less than 8. For the same compound, the “MIC in presence of colistin” value was 32 µg/mL in assay [5] (A. baumannii ATCC 17978), 16 µg/mL in assay [6] (K. pneumoniae ATCC 13833) and 64 µg/mL in the assay on Escherichia coli CCUG^T (E. coli CCUG^T). Also, the MIC (in assay [5]; in assay [6]; in the assay on Escherichia coli CCUG^T) was greater than 512 µg/mL each time.

As for `CCCCn1c(=O)c(C(=O)NC2CCCCCCC2)c(O)c2nn(C)cc21` [Is, 4-(1-Butyl)-N-cyclooctyl-4,5-dihydro-7-hydroxy-2-methyl-5-oxo-2H-pyrazolo[4,3-b]pyridin-6-carboxamide], the MIC in assay [1] was 32 µg/mL; in assay [2] it was 32 µg/mL; in assay [3] it was 512 µg/mL; in assay [4], 32 µg/mL; in assay [5] (setting [7]), greater than 512 µg/mL; in assay [6] (setting [8]), greater than 512 µg/mL. Further, the MIC in the assay with Escherichia coli CCUG^T (setting [9]) was greater than 512 µg/mL. The Potentiation fold (in assay [5] (A. baumannii ATCC 17978); in assay [6] (K. pneumoniae ATCC 13833); with Escherichia coli CCUG^T (E. coli CCUG^T)) was no less than 16 each time. Moreover, the “MIC in presence of colistin” value (in assay [5] (A. baumannii ATCC 17978); in assay [6] (K. pneumoniae ATCC 13833); in the assay on Escherichia coli CCUG^T (E. coli CCUG^T)) was 32 µg/mL throughout.

Take `CCCCn1c(=O)c(C(=O)NC2CCCc3ccccc32)c(O)c2nn(C)cc21` (stereo not drawn) [It, 4-(1-Butyl)-4,5-dihydro-7-hydroxy-2-methyl-5-oxo-N-(1,2,3,4-tetrahydro-1-naphthyl)-2H-pyrazolo[4,3-b]pyridin-6-carboxamide]: the MIC is 32 µg/mL in assay [1]; 32 µg/mL in assay [2]; 64 µg/mL in assay [3]; 64 µg/mL in assay [4]; greater than 512 µg/mL in assay [5] (setting [7]); greater than 512 µg/mL in assay [6] (setting [8]). In addition, the MIC with Escherichia coli CCUG^T (setting [9]) is greater than 512 µg/mL. In addition, the Potentiation fold in assay [5] (A. baumannii ATCC 17978) is recorded as no less than 32; in assay [6] (K. pneumoniae ATCC 13833) it was no less than 32; in the assay with Escherichia coli CCUG^T (E. coli CCUG^T), no less than 16. Besides, the figures for the “MIC in presence of colistin” value (in assay [5] (A. baumannii ATCC 17978); in assay [6] (K. pneumoniae ATCC 13833); in the assay on Escherichia coli CCUG^T (E. coli CCUG^T)) were 16 µg/mL, 16 µg/mL and 32 µg/mL, respectively.

For the compound `CC(C)n1c(=O)c(C(=O)NC2CCCCCCC2)c(O)c2nn(C)cc21` [Iz, N-Cyclooctyl-4,5-dihydro-7-hydroxy-2-methyl-5-oxo-4-(2-propyl)-2H-pyrazolo[4,3-b]pyridin-6-carboxamide], the MIC was 32 µg/mL in assay [1]; 32 µg/mL in assay [2]; 64 µg/mL in assay [3]; 16 µg/mL in assay [4]; greater than 512 µg/mL in assay [5] (setting [7]); greater than 512 µg/mL in assay [6] (setting [8]). Besides, the MIC in the assay with Escherichia coli CCUG^T (setting [9]) was greater than 512 µg/mL. Moreover, the values for the Potentiation fold (in assay [5] (A. baumannii ATCC 17978); in assay [6] (K. pneumoniae ATCC 13833); in the assay with Escherichia coli CCUG^T (E. coli CCUG^T)) were no less than 64, no less than 32 and no less than 64, respectively. Besides, the “MIC in presence of colistin” value in assay [5] (A. baumannii ATCC 17978) is 8 µg/mL; in assay [6] (K. pneumoniae ATCC 13833), 16 µg/mL; in the assay on Escherichia coli CCUG^T (E. coli CCUG^T), 8 µg/mL.
